Test results: patent US10364216B2, “Alkenyl sulfate ester or salt thereof” (Kao Corporation, priority 2013, dated 2019)
Structures can show the parent of a compound that is named as a salt.

How the values were obtained:
[1] = Sweetness adjusting action on sucrose, aspartame, sucralose, glycyrrhizin (simultaneous intake); assay type: in vivo, human; conditions: 5 mM, taken simultaneously with sweetener
Description: To seven examiners, four kinds of 10 mL aqueous sucrose standard solutions (2.5, 5.0, 7.5 and 10.0 wt %) were presented. The examiners kept each of the solutions in their mouth for 5 seconds or so, and then spat the solution out, and were asked to consider the sweetness intensity at that time (0 to 15) to be 2.5, 5, 7.5 and 10, respectively. Next, the examiners kept 10 mL aqueous solution (7.5 wt %) of sucrose in their mouth for 5 seconds or so without knowing the kind and the concentration of the sweetener, and then spat the solution out, and compared the sweetness intensity at that time with that of the aqueous sucrose standard solution, and evaluated the sweetness intensity with a number in a range of 0 to 15. In addition, after 30 seconds, the examiners kept 10 mL pure water in their mouth, and then spat the solution out, and compared the sweetness intensity felt at that time with that of the aqueous sucrose standard solution, and evaluated the sweetness intensity in the same manner. Subsequently, the examiners were presented with 10 mL aqueous sucrose solution containing 5 mM trans-3-octenyl sulfate (7.5 wt %), and kept it in their mouth for 5 seconds or so, and then spat the solution out, and compared the sweetness intensity at that time with the sweetness intensity of the aqueous sucrose standard solution, and evaluated the sweetness intensity in the same manner. In addition, immediately after that, the examiners kept 10 mL pure water in their mouth for 5 seconds or so, and then spat the solution out, and compared the sweetness intensity at that time with that of the aqueous sucrose standard solution, and evaluated the sweetness intensity in the same manner. In addition, after 30 seconds, the examiners kept 10 mL pure water in their mouth, and then spat the solution out, and compared the sweetness intensity felt at that time with that of the aqueous sucrose standard solution, and evaluated the sweetness intensity in the same manner.
To seven examiners, 4 kinds of 10 mL aqueous sucrose standard solutions (2.5, 5.0, 7.5 and 10.0 wt %) were presented. The examiners kept each of the solutions in their mouth for 5 seconds or so, and then spat the solution out, and were asked to consider the sweetness intensity at that time (0 to 15) to be 2.5, 5, 7.5 and 10, respectively. Next, the examiners kept 10 mL aqueous solution of aspartame (494 ppm) in their mouth for 5 seconds or so without knowing the kind and the concentration of the sweetener, and then spat the solution out, and compared the sweetness intensity at that time with that of the aqueous sucrose standard solution, and evaluated the sweetness intensity with a number in a range of 0 to 15. The concentration of aspartame was prepared to have the same sweetness intensity as that of the aqueous sucrose solution (7.5 wt %) in accordance with the reference (Schiffman, S. S. et al. Chemical senses, 1999, 24, 439-447.). In addition, after 30 seconds, the examiners kept 10 mL pure water in their mouth, and then spat the solution out, and compared the sweetness intensity felt at that time with that of the aqueous sucrose standard solution, and evaluated the sweetness intensity in the same manner. Subsequently, the examiners were presented with 10 mL aqueous solution of aspartame containing 5 mM trans-3-octenyl sulfate (494 ppm), and kept it in their mouth for 5 seconds or so, and then spat the solution out, and compared the sweetness intensity at that time with the sweetness intensity of the sucrose standard solution, and evaluated the sweetness intensity in the same manner. In addition, after 30 seconds, the examiners kept 10 mL pure water in their mouth, and then spat the solution out, and compared the sweetness intensity felt at that time with that of the aqueous sucrose standard solution, and evaluated the sweetness intensity in the same manner. […]

[2] = tested on: oocytes not expressing ENaC; assay: Control: inward current in oocytes not expressing ENaC; assay type: cell-based, Xenopus; conditions: same procedure
Description: Inhibition activity of ENaC expressed in Xenopus oocytes was measured according to the method described in “The journal of biological chemistry, 284 (2): pages 792-798 (2009)”. Specifically, trans-3-octenyl sulfate was added to oocytes expressed with ENaC complex, and the activity of ENaC was analyzed electrophysiologically in accordance with the procedures described below.
Two micro-glass electrodes were inserted into the oocyte, and the membrane potential was fixed at −60 mV. At this time, Na^+ ion influx induced by ENaC complex in a constantly active state was measured with replacement to change of the current amount. Namely, in 115 mM NaCl solution (115 mM NaCl, 2.5 mM KCl, 1.8 mM CaCl2, 1 mM NaHCO3, 1 mM MgCl2 and 10 mM HEPES, pH 7.4) and under circumstances where inward current was caused by the oocytes, trans-3-octenyl sulfate dissolved in the same solution was administered.
This effect was similar to that of an existing ENaC inhibitor amiloride.

CCCC/C=C/CCOS(=O)(=O)O [trans-3-octenyl sulfate]
Effect on aftertaste of sweetness remaining in the mouth [1]: reinforces the aftertaste of sweetness remaining in the mouth
Effect on first taste of sweetness immediately after taking sucrose, aspartame, sucralose or glycyrrhizin [1]: inhibits the first taste of sweetness
Effect on inward current in oocytes not expressing ENaC [2]: not recognized
